Measurements reported in patent publication US20180221384A1, “COMPOSITIONS OF MIDAZOLAM FOR BUCCAL ADMINISTRATION IN THE TREATMENT OF SEIZURES TO OBTAIN RAPID ONSET OF ACTION” (SWIPP AB, priority 2015, published 2018).
Structures can show the parent of a compound that is named as a salt. Where two headings read alike, the source gives them in different places.

Tests used:
[1] = Pilot in vivo study: midazolam film preparation applied on the oro-mucosal membrane, plasma levels by LC-MS/MS; conditions: for Corresponding plasma levels in children weighing 20 kg: at least; for Side-effects: healthy volunteers
Description: Film preparations weighing approximately 0.07 g (1×2 cm) containing 2 mg midazolam hydrochloride were applied on the oro-mucosal membrane in healthy volunteers (body weight 90 kg). Venous blood samples were drawn 6, 12 and 18 minutes after application.
Film preparations weighing approximately 0.07 g (1×2 cm) containing 1 mg midazolam hydrochloride were applied on the oro-mucosal membrane in healthy volunteers (body weight 90 kg). Venous blood samples were drawn 6, 12 and 18 minutes after application.

[2] = cited from earlier work
[3] = cited from earlier work; remark: listed apart in the source
[4] = human, plasma, other: applied on the oro-mucosal membrane, 1 mg
[5] = midazolam solution 5 mg buccal, healthy volunteers (Schwagmeier et al. 1998)

Row | Compound | Corresponding plasma levels in children weighing 20 kg ([1]; extrapolated from adults given 1 mg film) [ng/mL] | Corresponding plasma levels in children weighing 20 kg ([1]; extrapolated from adults given 2 mg film) [ng/mL] | Side-effects ([1]; film containing 1 mg midazolam hydrochloride) | Side-effects ([1]; film containing 2 mg midazolam hydrochloride) | Average plasma levels ([1]; film containing 2 mg midazolam hydrochloride, oro-mucosal, healthy volunteers 90 kg) [ng/mL] | concentration at 6 min [1, 4] [ng/mL] | concentration at 12 min [1, 4] [ng/mL] | Time to anticonvulsive effect ([2]; adults administered 10-20 mg (Nakken et al. 2011)) [min] | Time to anticonvulsive effect ([2]; children, buccal dose 0.2 mg/kg (Talukbar et al. 2009)) [min] | Time to plasma concentration of 5 ng/mL ([3]; approx. 10 mg midazolam, adult volunteers, most of the subjects (Scott et al. 1998)) [min] | Blood levels [3, 5] [ng/mL] | Time to blood levels of 5-10 ng/mL [3, 5] [min] | Blood levels ([1]; buccal film or wafer, dose 2 mg, adult volunteers (summary in description)) [ng/mL] | Plasma level ([1]; buccal film, dose 1 mg midazolam, adult 90 kg (summary in description)) | Plasma level (in words) ([1]; buccal film, dose 1 mg, adults average body weight 90 kg)
1 | Cc1ncc2n1-c1ccc(Cl)cc1C(c1ccccc1F)=NC2 [midazolam hydrochloride, Midazolam hydrochloride] | 15 to 20 | 15 to 50 | No side-effects were observed | No side-effects were observed | 5 | 1 | 4.6 | – | – | – | – | – | – | – | –
2 | Cc1ncc2n1-c1ccc(Cl)cc1C(c1ccccc1F)=NC2 [midazolam, Midazolam] | – | – | – | – | – | – | – | ≤ 5 | ≤ 5 | 5 to 10 | 5 to 10 | 3 to 6 | 5 to 10 | about 5 ng/mL | therapeutic levels
